Measured values reported in paper PMC5218480 (PLoS ONE, 2017).

Test system: MV-4-11 cells
Test: Gene expression microarray analysis (Affymetrix PrimeView) and GSEA
Type: cell-based, human
Parameters: RFU PODN (11730768_x_at) / Fold change /veh PODN (11730768_x_at) / RFU LINC00158 (11744669_a_at) / Fold change /veh LINC00158 (11744669_a_at) / RFU DUSP10 (11751237_a_at) / Fold change /veh DUSP10 (11751237_a_at) / RFU ID3 (11757404_x_at) / Fold change /veh ID3 (11757404_x_at) / RFU PLEKHG5 (11737974_s_at) / Fold change /veh PLEKHG5 (11737974_s_at) / RFU LRRC4B (11730491_at) / Fold change /veh LRRC4B (11730491_at) / RFU GIMAP4 (11747438_a_at) / Fold change /veh GIMAP4 (11747438_a_at) / RFU KRT8 (11758183_x_at) / Fold change /veh KRT8 (11758183_x_at) / RFU CNN1 (11734310_a_at) / Fold change /veh CNN1 (11734310_a_at) / RFU VPS37D (11726825_at) / Fold change /veh VPS37D (11726825_at) / RFU C10orf10 (11716522_x_at) / Fold change /veh C10orf10 (11716522_x_at) / RFU KIR2DL2 /// KIR2DL4 /// KIR2DL5A /// KIR2DL5B /// KIR2DS1 /// KIR2DS2 /// KIR2DS3 /// KIR2DS4 /// KIR3DL3 /// KIR3DL3 /// KIR3DS1 (11738374_at) / Fold change /veh KIR2DL2 /// KIR2DL4 /// KIR2DL5A /// KIR2DL5B /// KIR2DS1 /// KIR2DS2 /// KIR2DS3 /// KIR2DS4 /// KIR3DL3 /// KIR3DL3 /// KIR3DS1 (11738374_at) / RFU C1QL1 (11718748_at) / Fold change /veh C1QL1 (11718748_at) / RFU TMPRSS4 (11747572_a_at) / Fold change /veh TMPRSS4 (11747572_a_at) / RFU HAMP (11756126_x_at) / Fold change /veh HAMP (11756126_x_at) / RFU RNFT2 (11725882_a_at) / Fold change /veh RNFT2 (11725882_a_at) / RFU NR4A2 (11747474_a_at) / Fold change /veh NR4A2 (11747474_a_at) / RFU ABCC12 (11746883_a_at) / Fold change /veh ABCC12 (11746883_a_at) / RFU TMEM136 (11760407_x_at) / Fold change /veh TMEM136 (11760407_x_at) / RFU CLDN22 /// WWC2 (11732394_at) / Fold change /veh CLDN22 /// WWC2 (11732394_at) / RFU HLA-DPB1 (11760878_x_at) / Fold change /veh HLA-DPB1 (11760878_x_at) / RFU SPINT1 (11716480_a_at) / Fold change /veh SPINT1 (11716480_a_at) / RFU GAP43 (11754022_s_at) / Fold change /veh GAP43 (11754022_s_at) / RFU A4GNT (11735810_at) / Fold change /veh A4GNT (11735810_at) / RFU PRB3 (11715151_x_at) / Fold change /veh PRB3 (11715151_x_at) / RFU TUBB4B (11761932_at) / Fold change /veh TUBB4B (11761932_at) / RFU CAPN14 (11732068_a_at) / Fold change /veh CAPN14 (11732068_a_at) / RFU TMCC2 (11721928_a_at) / Fold change /veh TMCC2 (11721928_a_at) / RFU IRGQ (11745062_a_at) / Fold change /veh IRGQ (11745062_a_at) / RFU FAM174B (11720279_a_at) / Fold change /veh FAM174B (11720279_a_at) / RFU TMPRSS4 (11748680_a_at) / Fold change /veh TMPRSS4 (11748680_a_at) / RFU FAM212B (11763350_a_at) / Fold change /veh FAM212B (11763350_a_at) / RFU PLEKHG5 (11743358_a_at) / Fold change /veh PLEKHG5 (11743358_a_at) / RFU ZSCAN30 (11745921_a_at) / Fold change /veh ZSCAN30 (11745921_a_at) / RFU CMKLR1 (11741424_a_at) / Fold change /veh CMKLR1 (11741424_a_at) / RFU LOC101060620 /// MAPK8IP1 (11723275_at) / Fold change /veh LOC101060620 /// MAPK8IP1 (11723275_at) / RFU SPTSSB (11747773_x_at) / Fold change /veh SPTSSB (11747773_x_at) / RFU PRSS12 (11739890_at) / Fold change /veh PRSS12 (11739890_at) / RFU BIN1 (11741810_x_at) / Fold change /veh BIN1 (11741810_x_at) / RFU WNT11 (11732464_a_at) / Fold change /veh WNT11 (11732464_a_at) / RFU C10orf10 (11716521_a_at) / Fold change /veh C10orf10 (11716521_a_at) / RFU C5orf56 (11738089_at) / Fold change /veh C5orf56 (11738089_at) / RFU CYB561 (11721691_x_at) / Fold change /veh CYB561 (11721691_x_at) / RFU ANKRD19P (11752326_a_at) / Fold change /veh ANKRD19P (11752326_a_at) / RFU OR2T12 /// OR2T33 /// OR2T8 (11738714_s_at) / Fold change /veh OR2T12 /// OR2T33 /// OR2T8 (11738714_s_at) / RFU VCAN (11748164_a_at) / Fold change /veh VCAN (11748164_a_at) / RFU JSRP1 (11732532_at) / Fold change /veh JSRP1 (11732532_at) / RFU KRTAP10-11 (11738290_x_at) / Fold change /veh KRTAP10-11 (11738290_x_at) / RFU MYO3A (11730013_a_at) / Fold change /veh MYO3A (11730013_a_at) / RFU EBF3 (11725865_a_at) / Fold change /veh EBF3 (11725865_a_at) / RFU CAMK2N1 (11719241_x_at) / Fold change /veh CAMK2N1 (11719241_x_at) / RFU C5orf56 (11738088_a_at) / Fold change /veh C5orf56 (11738088_a_at) / RFU OLFML3 (11715873_a_at) / Fold change /veh OLFML3 (11715873_a_at) / RFU LOC100653217 /// NTM (11731650_a_at) / Fold change /veh LOC100653217 /// NTM (11731650_a_at) / RFU MAPK11 (11762145_a_at) / Fold change /veh MAPK11 (11762145_a_at) / RFU FIZ1 (11724087_x_at) / Fold change /veh FIZ1 (11724087_x_at) / RFU OASL (11726364_x_at) / Fold change /veh OASL (11726364_x_at) / RFU SOX15 (11748057_x_at) / Fold change /veh SOX15 (11748057_x_at) / RFU CD79A (11719716_a_at) / Fold change /veh CD79A (11719716_a_at) / RFU HIST1H1D (11736915_at) / Fold change /veh HIST1H1D (11736915_at) / RFU CASKIN2 (11723855_a_at) / Fold change /veh CASKIN2 (11723855_a_at) / RFU LOC730098 (11760151_x_at) / Fold change /veh LOC730098 (11760151_x_at) / RFU OR4N2 (11742367_at) / Fold change /veh OR4N2 (11742367_at) / RFU PRRT2 (11749266_a_at) / Fold change /veh PRRT2 (11749266_a_at) / RFU SNX32 (11753110_a_at) / Fold change /veh SNX32 (11753110_a_at) / RFU CDHR5 (11726645_a_at) / Fold change /veh CDHR5 (11726645_a_at) / RFU RCAN1 (11760418_a_at) / Fold change /veh RCAN1 (11760418_a_at) / RFU FAM167A (11723789_a_at) / Fold change /veh FAM167A (11723789_a_at) / RFU FAM26E (11764081_at) / Fold change /veh FAM26E (11764081_at) / RFU ISYNA1 (11749810_s_at) / Fold change /veh ISYNA1 (11749810_s_at) / RFU ACY1 (11761880_at) / Fold change /veh ACY1 (11761880_at) / RFU 11764098_at / Fold change /veh 11764098_at / RFU SAMD14 (11745864_x_at) / Fold change /veh SAMD14 (11745864_x_at) / RFU NPB (11741838_a_at) / Fold change /veh NPB (11741838_a_at) / RFU TMPRSS6 (11731388_a_at) / Fold change /veh TMPRSS6 (11731388_a_at) / RFU KRTAP10-2 (11738614_at) / Fold change /veh KRTAP10-2 (11738614_at) / RFU ARHGAP8 /// PRR5-ARHGAP8 (11727945_x_at) / Fold change /veh ARHGAP8 /// PRR5-ARHGAP8 (11727945_x_at) / RFU KRTAP5-7 /// NADSYN1 (11734609_at) / Fold change /veh KRTAP5-7 /// NADSYN1 (11734609_at) / RFU RASL12 (11751679_a_at) / Fold change /veh RASL12 (11751679_a_at) / RFU CDKN2B (11736163_a_at) / Fold change /veh CDKN2B (11736163_a_at) / RFU PRF1 (11729649_at) / Fold change /veh PRF1 (11729649_at) / RFU, ZNF638 /// ZNF638-IT1 / Fold change vs veh, ZNF638 /// ZNF638-IT1 / RFU, PANK3 / Fold change vs veh, PANK3 / RFU, SH3YL1 / Fold change vs veh, SH3YL1 / RFU, ZEB2 / Fold change vs veh, ZEB2 / RFU, NRIP1 / Fold change vs veh, NRIP1 / RFU, PTTG1IP / Fold change vs veh, PTTG1IP / RFU, CAPN2 / Fold change vs veh, CAPN2 / RFU, MED14 / Fold change vs veh, MED14 / RFU, SNORA58 / Fold change vs veh, SNORA58 / RFU, C1orf63 / Fold change vs veh, C1orf63 / RFU, LRRFIP1 / Fold change vs veh, LRRFIP1 / RFU, NDUFAF7 / Fold change vs veh, NDUFAF7 / RFU, SLC12A2 / Fold change vs veh, SLC12A2 / RFU, IBTK / Fold change vs veh, IBTK / RFU, ESF1 / Fold change vs veh, ESF1 / Fold change vs veh, TMEM50B / RFU, TAOK1 / Fold change vs veh, TAOK1 / RFU, ACBD3 / Fold change vs veh, ACBD3 / RFU, TMA16 / Fold change vs veh, TMA16 / RFU, RWDD3 / Fold change vs veh, RWDD3 / RFU, BCAT1 / Fold change vs veh, BCAT1 / RFU, EDEM3 / Fold change vs veh, EDEM3 / RFU, TMEM33 / Fold change vs veh, TMEM33 / RFU, WDR75 / Fold change vs veh, WDR75 / RFU, AHCTF1 / Fold change vs veh, AHCTF1 / RFU, TFRC / Fold change vs veh, TFRC / RFU, ZDHHC17 / Fold change vs veh, ZDHHC17 / RFU, NOM1 / Fold change vs veh, NOM1 / RFU, ARL8B / Fold change vs veh, ARL8B / RFU, ZBTB11 / Fold change vs veh, ZBTB11 / RFU, TAMM41 / Fold change vs veh, TAMM41 / RFU, KIAA1704 /// LOC100996395 / Fold change vs veh, KIAA1704 /// LOC100996395 / RFU, ING1 / Fold change vs veh, ING1 / RFU, TRMT61B / Fold change vs veh, TRMT61B / RFU, FUBP3 / Fold change vs veh, FUBP3 / RFU, TP53 / Fold change vs veh, TP53 / RFU, TNKS2 / Fold change vs veh, TNKS2 / RFU, ZFP14 / Fold change vs veh, ZFP14 / RFU, ACTR2 / Fold change vs veh, ACTR2 / RFU, PPP3R1 / Fold change vs veh, PPP3R1 / RFU, PIK3R1 / Fold change vs veh, PIK3R1 / RFU, HNRNPA1 / Fold change vs veh, HNRNPA1 / RFU, RNF170 / Fold change vs veh, RNF170 / RFU, ZNF28 / Fold change vs veh, ZNF28 / RFU, RNGTT / Fold change vs veh, RNGTT / RFU, OGT / Fold change vs veh, OGT / RFU, BRD1 / Fold change vs veh, BRD1 / RFU, MARS / Fold change vs veh, MARS / RFU, ZNF655 / Fold change vs veh, ZNF655 / RFU, FAHD1 / Fold change vs veh, FAHD1 / RFU, BDP1 / Fold change vs veh, BDP1 / RFU, LRRCC1 / Fold change vs veh, LRRCC1 / RFU, ARID1A / Fold change vs veh, ARID1A / RFU, ZNF146 / Fold change vs veh, ZNF146 / RFU, ZNF330 / Fold change vs veh, ZNF330 / RFU, GPN3 / Fold change vs veh, GPN3 / RFU, C9orf123 / Fold change vs veh, C9orf123 / RFU, N4BP2L2 / Fold change vs veh, N4BP2L2 / RFU, ARFIP1 / Fold change vs veh, ARFIP1 / RFU, FAM179B / Fold change vs veh, FAM179B / RFU, BCL10 / Fold change vs veh, BCL10 / RFU, UHRF1BP1L / Fold change vs veh, UHRF1BP1L / RFU, BET1 / Fold change vs veh, BET1 / RFU, CNOT2 / Fold change vs veh, CNOT2 / RFU, ZNF268 / Fold change vs veh, ZNF268 / Fold change vs veh, ZNF507 / RFU, DGCR2 / Fold change vs veh, DGCR2 / RFU, WDSUB1 / Fold change vs veh, WDSUB1 / Fold change vs veh, HSP90B1 /// MIR3652 / RFU, ADSS / Fold change vs veh, ADSS / RFU, GK / Fold change vs veh, GK / RFU, ZNF148 / Fold change vs veh, ZNF148 / RFU, TAF9 / Fold change vs veh, TAF9 / RFU, SLC1A5 / Fold change vs veh, SLC1A5 / RFU, SLMO2 / Fold change vs veh, SLMO2 / RFU, ABCC4 / Fold change vs veh, ABCC4 / RFU, LOC101060439 /// RAP1B / Fold change vs veh, LOC101060439 /// RAP1B / RFU, RFX7 / Fold change vs veh, RFX7 / RFU, GTPBP10 / Fold change vs veh, GTPBP10 / RFU, CNEP1R1 / Fold change vs veh, CNEP1R1 / RFU, BIVM-ERCC5 /// ERCC5 / Fold change vs veh, BIVM-ERCC5 /// ERCC5 / RFU, ILF3 / Fold change vs veh, ILF3 / RFU 11762660_at / Fold change /veh 11762660_at / RFU VCAN (11757783_s_at) / Fold change /veh VCAN (11757783_s_at) / RFU DDX43 (11728927_at) / Fold change /veh DDX43 (11728927_at) / RFU KRT8 (11758188_x_at) / Fold change /veh KRT8 (11758188_x_at) / RFU NKD1 (11759106_at) / Fold change /veh NKD1 (11759106_at) / RFU SRD5A1 (11742802_a_at) / Fold change /veh SRD5A1 (11742802_a_at) / RFU TPSAB1 /// TPSB2 (11721975_s_at) / Fold change /veh TPSAB1 /// TPSB2 (11721975_s_at) / RFU GSTM3 (11746129_a_at) / Fold change /veh GSTM3 (11746129_a_at) / RFU IL23R (11737362_x_at) / Fold change /veh IL23R (11737362_x_at) / RFU TMEM51 (11727254_a_at) / Fold change /veh TMEM51 (11727254_a_at) / RFU PIWIL2 (11732686_x_at) / Fold change /veh PIWIL2 (11732686_x_at) / RFU ORM1 (11744905_x_at) / Fold change /veh ORM1 (11744905_x_at) / RFU CCDC152 (11743942_at) / Fold change /veh CCDC152 (11743942_at) / RFU ECM1 (11717891_a_at) / Fold change /veh ECM1 (11717891_a_at) / RFU IL23R (11748794_a_at) / Fold change /veh IL23R (11748794_a_at) / RFU TNFAIP8L3 (11732012_x_at) / Fold change /veh TNFAIP8L3 (11732012_x_at) / RFU MBOAT4 (11741988_at) / Fold change /veh MBOAT4 (11741988_at) / RFU 11764193_at / Fold change /veh 11764193_at / RFU TMEM53 (11763286_at) / Fold change /veh TMEM53 (11763286_at) / RFU MAGEB2 (11727129_at) / Fold change /veh MAGEB2 (11727129_at) / RFU TMEM200A (11744735_a_at) / Fold change /veh TMEM200A (11744735_a_at) / RFU CCDC152 (11751479_a_at) / Fold change /veh CCDC152 (11751479_a_at) / RFU FAM211A (11726209_a_at) / Fold change /veh FAM211A (11726209_a_at) / RFU RGS16 (11746705_a_at) / Fold change /veh RGS16 (11746705_a_at) / RFU VCAN (11755009_s_at) / Fold change /veh VCAN (11755009_s_at) / RFU RHOB (11743442_s_at) / Fold change /veh RHOB (11743442_s_at) / RFU RGS16 (11720943_a_at) / Fold change /veh RGS16 (11720943_a_at) / RFU RGS16 (11720944_at) / Fold change /veh RGS16 (11720944_at) / RFU, VPS4B / Fold change vs veh, VPS4B / RFU, CREB1 / Fold change vs veh, CREB1 / RFU, DNAJC13 / Fold change vs veh, DNAJC13 / RFU, GNAQ / Fold change vs veh, GNAQ / RFU, CDK5R1 / Fold change vs veh, CDK5R1 / RFU, ZRANB3 / Fold change vs veh, ZRANB3 / RFU, CUL4A / Fold change vs veh, CUL4A / RFU, CCNY / Fold change vs veh, CCNY / RFU, UFL1 / Fold change vs veh, UFL1 / RFU, COG3 / Fold change vs veh, COG3 / RFU, DIAPH2 / Fold change vs veh, DIAPH2 / RFU, SKA2 / Fold change vs veh, SKA2 / RFU, AFF3 / Fold change vs veh, AFF3 / RFU, LMF1 / Fold change vs veh, LMF1 / RFU, IPO11 / Fold change vs veh, IPO11 / RFU, DFFB / Fold change vs veh, DFFB / RFU, FOXP1 / Fold change vs veh, FOXP1 / RFU, CARD8 / Fold change vs veh, CARD8 / RFU, STRN3 / Fold change vs veh, STRN3 / RFU, ADK / Fold change vs veh, ADK / RFU, RASSF2 / Fold change vs veh, RASSF2 / RFU, WIPF1 / Fold change vs veh, WIPF1 / RFU, LARP1B / Fold change vs veh, LARP1B / RFU, RASA1 / Fold change vs veh, RASA1 / RFU, RB1 / Fold change vs veh, RB1 / RFU, PPFIA1 / Fold change vs veh, PPFIA1 / RFU, MAT2A / Fold change vs veh, MAT2A / RFU, CCT5 / Fold change vs veh, CCT5 / RFU, WDR92 / Fold change vs veh, WDR92 / RFU, CUX1 / Fold change vs veh, CUX1 / RFU, TTC7A / Fold change vs veh, TTC7A / RFU, TMEM135 / Fold change vs veh, TMEM135 / RFU, DEPTOR / Fold change vs veh, DEPTOR / RFU, CPM / Fold change vs veh, CPM / RFU, DNAJB6 / Fold change vs veh, DNAJB6 / RFU, CACNA2D3 / Fold change vs veh, CACNA2D3 / RFU, DTX4 / Fold change vs veh, DTX4 / RFU, TFCP2 / Fold change vs veh, TFCP2 / RFU, GMCL1 /// GMCL1P1 / Fold change vs veh, GMCL1 /// GMCL1P1 / RFU, AEBP2 / Fold change vs veh, AEBP2 / RFU, SNHG1 /// SNORD22 /// SNORD25 /// SNORD26 /// SNORD27 /// SNORD28 /// SNORD29 /// SNORD31 / Fold change vs veh, SNHG1 /// SNORD22 /// SNORD25 /// SNORD26 /// SNORD27 /// SNORD28 /// SNORD29 /// SNORD31 / Fold change (Aza/veh), C12orf56 (ProbeSet 11735607_a_at) / Fold change (ACY-1035/veh), C12orf56 (ProbeSet 11735607_a_at) / Fold change (Aza/veh), FGFR1OP (ProbeSet 11751329_s_at) / Fold change (ACY-1035/veh), FGFR1OP (ProbeSet 11751329_s_at) / Fold change (Aza/veh), VPS36 (ProbeSet 11739960_a_at) / Fold change (ACY-1035/veh), VPS36 (ProbeSet 11739960_a_at) / RFU SYPL1 (11715823_x_at) / Fold change /veh SYPL1 (11715823_x_at) / RFU IGFBP7 (11715501_s_at) / Fold change /veh IGFBP7 (11715501_s_at) / RFU REEP3 (11722064_at) / Fold change /veh REEP3 (11722064_at) / RFU IGLL1 (11728026_x_at) / Fold change /veh IGLL1 (11728026_x_at): dose or concentration left out as unconfirmed
Settings: MV-4-11 cells, 48 hours

## Nc1ccc(-c2cccs2)cc1NC(=O)c1ccc2c(c1)cc(C1CC1)n2CCN1CCOCC1 [ACY-1035]
  Fold change /veh ARHGAP8 /// PRR5-ARHGAP8 (11727945_x_at): 1.04
